In patent publication US4937184A, “N-demethylefrotomycin” (Pfizer Inc., priority 1989, dated 1990):
≈ marks a conversion by molar mass, not a printed value.

How the values were obtained:
E. coli = experiment: In vitro MIC in brain heart infusion (BHI) broth, E. coli; assay type: cell-based; settings: Escherichia coli
Source text: (§1) Generally twelve 2 fold dilutions of the test compound are employed, with initial concentration of the test drug being in the range of 50 to 200 mcg./ml. The susceptibility (MIC) of the test organism is accepted as the lowest concentration of compound capable of producing complete inhibition of growth as judged by the naked eye.

Hemoph. pleur. = experiment: In vitro MIC in brain heart infusion (BHI) broth, Hemoph. pleur.; assay type: cell-based; settings: 24 h
Source text: as §1

Lact. acidoph. = experiment: In vitro MIC in brain heart infusion (BHI) broth, Lact. acidoph.; assay type: cell-based; settings: 24 h, strain 001, replicate Day 1
Source text: as §1

Acto. pyog. = experiment: In vitro MIC in brain heart infusion (BHI) broth, Acto. pyog.; assay type: cell-based; settings: 24 h
Source text: as §1

Past. mult = experiment: In vitro MIC in brain heart infusion (BHI) broth, Past. mult; assay type: cell-based; settings: 48 h
Source text: as §1

Past. haem. 010 = experiment: Mouse protection test, i.p. infection with multilethal amounts of Past. haem. 010; assay type: in vivo, mice; settings: subcutaneous, infected i.p. with multilethal amounts of Past. haem. 010
Method: Additionally, compound (I) is tested in vivo by the well-known mouse protection test, or by a microbiological (bioassay) determination of serum levels in a variety of mammals (e.g., mouse, rat, dog). For example, at subcutaneous doses of either 100 mg./kg. or 25 mg./kg., there was survival of 5/5 mice infected i.p. with multilethal amounts of Past. haem. 010.

Past. haem. = experiment: In vitro MIC in brain heart infusion (BHI) broth, Past. haem.; assay type: cell-based
Source text: as §1

## CC=CC=CC1OC(O)(C(CC)C(=O)NCC=CC=C(C)C(OC)C(C)C2OC(C=CC=CC=C(C)C(=O)c3c(O)cc[nH]c3=O)C(O)C2O)C(O)C(OC2OC(C)C(OC3OC(C)C(OC)C(O)C3OC)C(OC)C2O)C1(C)C (stereo not shown) [N-Demethylefrotomycin, N-demethylefrotomycin]
E. coli; 24 h, strain 124, replicate Day 1
  MIC: > 100 µg/mL
E. coli; 48 h, strain 124, replicate Day 2
  MIC: > 100 µg/mL
Hemoph. pleur.; strain 004, replicate Day 1
  MIC: 12.5 µg/mL (≈ 11 µM)
Hemoph. pleur.; strain 005, replicate Day 1
  MIC: 12.5 µg/mL (≈ 11 µM)
Lact. acidoph.
  MIC: 12.5 µg/mL (≈ 11 µM)
Acto. pyog.; strain 002, replicate Day 1
  MIC: 12.5 µg/mL (≈ 11 µM)
Acto. pyog.; strain 008, replicate Day 1
  MIC: 12.5 µg/mL (≈ 11 µM)
Past. mult
  MIC: 12.5 µg/mL (≈ 11 µM)
Past. haem. 010; 25 mg./kg.
  survival: 5/5
Past. haem. 010; 100 mg./kg.
  survival: 5/5
Past. haem.; 24 h
  MIC: 12.5 µg/mL (≈ 11 µM)
Past. haem.; 48 h
  MIC: 12.5 µg/mL (≈ 11 µM)
Past. haem.; strain 046, replicate Day 2, BHI broth
  MIC: 12.5 µg/mL (≈ 11 µM)
